Reference: article PMC5581131, “The novel sphingosine-1-phosphate receptors antagonist AD2900 affects lymphocyte activation and inhibits T-cell entry into the lymph nodes” (Oncotarget, 2017)

Legend:
human PBMCs = experiment: 5-day MLR with Et-18-OCH3, BAPTA-AM or 8-bromo-cAMP preincubation, analogues present throughout; type: cell-based; settings: 2 μM
Protocol: To determine whether the effect of inhibition of AD2900 on PBMC proliferation is dependent on the same signal transduction pathways, we next examined the capacities of the intracellular Ca^2+ chelator-BAPTA-AM, phosphatidylinositol-specific PLC inhibitor-Et-18-OCH3, and cell-permeate exogenous cAMP-8-bromo-cAMP to alter the suppressive effect of AD2900 and FTY720 on PBMC proliferation. S1P served as a positive control (Figures 2A, 2B, and 2C, respectively). PBMCs were pre-incubated for 1 hour with the inhibitors before the addition of 2 μM AD2900, FTY720, or S1P in the MLR experiment. The inhibitors and the analogues were present in the culture throughout the allogeneic activation. AD2900 suppression of PBMC proliferation was reduced from 59% ± 3% to 32% ± 7% by the exogenous cAMP. BAPTA-AM also partially reversed AD2900 suppression of PBMC proliferation from 59% ± 3% to 32% ± 3%, yet Et-18-OCH3 had no effect (Figure 2A).
Figure 2 Effect of AD2900 on proliferation is dependent on cAMP reduction and calcium signal transduction The effect of Edelfosine (Et-18-OCH3) (Et), BAPTA-AM (BAPTA), or 8-bromo-cAMP (8-b-CAMP) on the inhibition of PBMC proliferation was tested in a 5-day MLR experiment. The cells were incubated with 1 μM Edelfosine, 0.2 μM BAPTA-AM, or 5 μM 8-bromo-cAMP for 1 hour before the addition of sphingolipid analogues, 2 μM AD2900 (AD) (A), FTY720 (FTY) (B), or S1P (C). Significances are compared to AD2900/FTY/S1P without preincubation, respectively. Graphs summarize the results of at least four independent experiments. Results of Student’s t-test: *(P < 0.05, two-tailed test), ** (P < 0.01, two-tailed test).
Human PBLs were collected from human whole blood collected from healthy donors. Subsequently, the cells were centrifuged on a Ficoll-Paque gradient (Fresenius Kabi Norge AS, Oslo, Norway) and were isolated from the interphase layer. For the human MLR experiment, PBMCs from one healthy donor were pretreated for 1 day with AD2900, AD2730, AD2750, YZ297, YZ158, FTY720, or SEW2871. After 24 h, cells were washed and plated at a concentration of 5 × 10^4 cells/well in round bottom 96-well plates containing RPMI-1640 medium Supplemented with 10% human AB serum, 1% penicillin/streptomycin, and 1% l-glutamine (Beit Haemek, Israel). PBMCs from a second donor were irradiated at 3000 γ dosage and added to the plate in a 1:1 ratio with the first donor cells. The cells were cultured for 5 days. For the thymidine incorporation assay, after 4 days of co-culture, cells were pulsed with ^3H-thymidine at 1 μCi (0.037MBq) per well (PerkinElmer, MA, USA) for 16 additional hours and then harvested onto glass-fiber filters. ^3H-thymidine incorporation was measured using Top Count. NXT (PerkinElmer, UK). In other experiments, the supernatant was harvested after 5 days of co-culture for IFN-γ and TNF-α cytokine ELISA measurements (eBioscience, CA, USA). The cells were then collected for assessing apoptosis by FACS in MACSQuant analyzer (Miltenyi Biotech, Germany). In another set of experiments, the PBMCs of two donors were mixed. Sphingolipid analogues were then added to the culture and sustained through the 5 days of the MLR experiment.

C57BL/6 mice [1] = experiment: CCR7-positive T-cell population in vivo, FACS; set-up: species or system mouse
Source text: (§1) The S1P gradient is a crucial factor for lymphocytes to egress from lymphoid tissues and re-enter the circulation. […] To identify whether the effect of AD2900 on T-cell localization may be mediated by an influence on S1P1 and CCR7 expression, we tested the percentage of S1P1- and CCR7-positive T-cell populations in the blood, spleen, and lymph node in each mouse after a 2-day treatment with AD2900. The percentage of cells expressing S1P1 or CCR7 on their cell surface was detected by FACS analysis and was calculated as % of expressing population in non-treated animals. […] AD2900 elevates the S1P1-expressing population in the blood and spleen, whereas it reduces this population in the lymph nodes. […] In the lymph nodes, the […] population was not affected by AD2900 treatment (Figure 7F).
(§2) Figure 7 The influence of AD2900 on S1P1- and CCR7-positive T-cell populations in blood, spleen, and peripheral lymph nodes C57BL/6 mice were orally administered with 1.8, 2.7, and 3.6 mg/l AD2900 or 1.8 mg/l FTY720 for 2 days, as shown in Figure 4. Leukocytes from blood, spleen, and pLNs were collected and stained with CD3e and S1P1 or CCR7 fluorescent antibodies and then analyzed by FACS analysis. The percentages of S1P1+ CD3e+ T cells from blood (A), spleen (B), and pLNs (C) are shown. The percentages of CCR7+ CD3e+ T cells from blood (D), spleen (E), and pLNs (F) are shown. All the significances are compared to untreated healthy mice. Results summarize at least three independent experiments. Results of Student’s t-test:*(P < 0.05, two-tailed test), ** (P < 0.01, two-tailed test), *** (P < 0.001, two-tailed test), **** (P < 0.0001, two-tailed test).
Murine lymphocytes: The phenotype of murine lymphocytes was analyzed by flow cytometry using anti-CD3e-FITC, anti-CD19-PB, anti-CCR7-APC, anti-CD44-FITC, anti-CD62L-APC, and anti-TCR-β-PB (Biolegend, CA, USA).
(§3) C57BL/6 female mice aged 7–8 weeks were obtained from Harlan Laboratories (Jerusalem, Israel). The animal study was conducted under appropriate conditions and was approved by the Institutional Animal Care and Use Committee of the Hebrew University of Jerusalem in accordance with the national laws and regulations for the protection of animals. AD2900 was dissolved in 10% BSA (MP Biomedicals, CA, USA) in DDW at 1 mg/ml and then further diluted in 200 ml water to get final concentrations at 1.8, 2.7, or 3.6 mg/l. AD2900 and FTY720 were supplied ad libitum to the mice for 2 days or 7 days. At the end of the experiment, blood was collected, and the mice were sacrificed and tissues (lymph nodes and spleen) were harvested.

C57BL/6 mice [2] = experiment: S1P1-positive T-cell population in vivo, FACS; set-up: species or system mouse; settings: for increase of S1P1-positive T cells in the blood, of normal expression levels / increase of S1P1 population, spleen T cells / decrease of S1P1 population in the lymph nodes: 2-day treatment
Source text: as §1, §2, §3

Compound	suppression of PBMC proliferation (human PBMCs; present throughout MLR, without preincubation)	suppression of PBMC proliferation with BAPTA-AM (human PBMCs; 1 hour preincubation with 0.2 μM BAPTA-AM)	effect of Et-18-OCH3 on suppression of PBMC proliferation (human PBMCs; 1 hour preincubation with 1 μM Et-18-OCH3)	suppression of PBMC proliferation with exogenous cAMP (human PBMCs; 1 hour preincubation with 5 μM 8-bromo-cAMP)	decrease of CCR7-positive T cells in the blood, of the normal expression levels (C57BL/6 mice [1]; 1.8 mg/l, 2-day treatment)	decrease of CCR7-positive T cells in the blood, of the normal expression levels (C57BL/6 mice [1]; 2.7 mg/l, 2-day treatment)	decrease of the S1P1 population, spleen T cells (Figure 7E) (C57BL/6 mice [1]; 3.6 mg/l (highest dose), 2-day treatment)	S1P1 population in the lymph nodes (Figure 7F) (C57BL/6 mice [1]; 2-day treatment)	increase of S1P1-positive T cells in the blood, of normal expression levels (C57BL/6 mice [2]; 1.8 mg/l)	increase of S1P1 population, spleen T cells (C57BL/6 mice [2]; 1.8 mg/l)	decrease of S1P1 population in the lymph nodes (C57BL/6 mice [2]; 2.7 mg/l)	increase of S1P1-positive T cells in the blood, of normal expression levels (C57BL/6 mice [2]; 2.7 mg/l)	increase of S1P1 population, spleen T cells (C57BL/6 mice [2]; 2.7 mg/l)	decrease of S1P1 population in the lymph nodes (C57BL/6 mice [2]; 3.6 mg/l)	increase of S1P1-positive T cells in the blood, of normal expression levels (C57BL/6 mice [2]; 3.6 mg/l)	effect of Et-18-OCH3, BAPTA-AM and 8-bromo-cAMP on suppression of PBMC proliferation (human PBMCs; 1 hour preincubation with the inhibitors)	reduction of the CCR7 population in murine blood, spleen, and lymph nodes (C57BL/6 mice [1]; 1.8 mg/l, 2 days)	effects on the S1P1 population in murine blood, spleen, and lymph nodes (C57BL/6 mice [2]; 1.8 mg/l, 2 days)
CCCCCCCCCCCCCCCCNC(CO)(CO)CO [AD2900]	59% ± 3%	32% ± 3%	no effect	32% ± 7%	21% ± 5%	15% ± 4%	12% ± 4%	not affected	20% ± 4%	12% ± 5%	12% ± 3%	16% ± 5%	31% ± 5%	18% ± 11%	18% ± 4%	–	–	–
CCCCCCCCc1ccc(CCC(N)(CO)CO)cc1 [FTY720, Fingolimod, reference compound]	–	–	–	–	–	–	–	–	–	–	–	–	–	–	–	not nullified by any of these interventions	15%–20%	did not demonstrate any effects
